{
  "source": "patent US4914107A",
  "about": "“Method for selectively blocking 5-HT2 receptors” (Eli Lilly and Company, priority 1989, dated 1990)",
  "key": {"[1]": {"system": "vascular (5HT2) serotonin receptors", "assay": "Duration of inhibition of vascular 5HT2 receptors in pithed rats (serotonin challenge 0.1 mg/kg i.v.)", "format": "in vivo, rat", "conditions": "for inhibition of vascular serotonin receptors: pithed rats; for Increase in mean blood pressure to serotonin: 0.1 mg/kg iv", "description": "For these studies pithed rats were treated with vehicle or with the acid or the ester at a dose of 0.1 mg/kg, i.v. and challenged with serotonin (0.1 mg/kg i.v.) at various intervals for 2 hrs. after test compound or vehicle administration."}, "[2]": {"system": "vascular (5HT2) serotonin receptors", "assay": "Duration of inhibition of vascular 5HT2 receptors in pithed rats (serotonin challenge 0.1 mg/kg i.v.)", "format": "in vivo, rat", "conditions": "0.3 mg/kg iv"}, "[3]": {"system": "vascular (5HT2) serotonin receptors", "assay": "Inhibition of the pressor response to serotonin in pithed rats after intravenous test compound", "format": "in vivo, rat", "conditions": "for effect on pressor response to serotonin: pithed rats", "description": "Serotonin receptor antagonism was evaluated in pithed Wistar normotensive rats (Charles River, Inc. Portage, MI; 240-374 g) since responses in the pithed preparation are primarily direct vascular effects. Rats were anesthetized with Metofane® (methoxyflurane), carotid arterial and femoral venous catheters were implanted, and the trachea was cannulated. Rats were pithed and ventilated with room air (Cohen et al., supra, 1983; Cohen et al., supra, 1985). An equilibration period of 15 min. was observed before control measurements and i.v. administration of test compound or vehicle. Increasing intravenous doses of serotonin were injected 15 min. after intravenous administration of test compound or vehicle. […] By intravenous administration, 1-isopropyldihydrolysergic acid was only approximately one-third as potent as the ester in blocking vascular 5HT2 receptors."}, "[4]": {"target": "T1, 5HT2 receptors (Rattus norvegicus, UniProt P14842)", "T1 construct": "Ring preparations of external rat jugular veins were used; tissue Harlan Sprague-Dawley, Inc., Cumberland, IN (animals); host or cells: external jugular vein rings of male Wistar rats", "T1 sequence (P14842 whole entry)": "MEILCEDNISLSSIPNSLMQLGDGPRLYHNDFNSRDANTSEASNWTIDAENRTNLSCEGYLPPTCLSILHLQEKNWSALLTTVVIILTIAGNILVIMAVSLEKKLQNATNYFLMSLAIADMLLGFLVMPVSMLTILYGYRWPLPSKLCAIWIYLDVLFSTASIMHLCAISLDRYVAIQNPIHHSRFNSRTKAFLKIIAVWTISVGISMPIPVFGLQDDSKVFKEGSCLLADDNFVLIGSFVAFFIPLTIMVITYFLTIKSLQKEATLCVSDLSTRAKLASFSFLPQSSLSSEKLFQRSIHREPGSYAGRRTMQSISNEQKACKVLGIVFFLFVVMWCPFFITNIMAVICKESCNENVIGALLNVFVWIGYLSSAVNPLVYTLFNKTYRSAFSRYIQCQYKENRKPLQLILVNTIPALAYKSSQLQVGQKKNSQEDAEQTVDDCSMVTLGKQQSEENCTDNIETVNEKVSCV", "conditions": "cited from earlier work"}, "[5]": {"target": "T1, 5HT2 receptors", "assay": "Antagonism of serotonin-induced contractions in the rat jugular vein (in vitro 5HT2 affinity)", "format": "cell-based", "description": "Male Wistar rats (150-300 g) (Harlan Sprague-Dawley, Inc., Cumberland, IN) were killed by cervical dislocation. Ring preparations of external rat jugular veins were used as detailed in [(Cohen et al., J. Pharm. and Exper. Therapeutics 227, 327-332 (1983); Cohen et al., J. Pharm. and Exper. Therapeutics 235, 319-323 (1985).]\nTissues were mounted in organ baths containing 10 ml of modified Krebs' solution of the following composition (millimolar concentrations): NaCl, 118.2; KCl, 4.6; CaCl2.2H2 O, 1.6; KH2 PO4, 1.2; MgSO4, 1.2; dextrose, 10.0; and NaHCO3, 24.8. Tissue bath solutions were maintained at 37° C. and aerated with 95% O2 -5% CO2. Isometric contractions were recorded as changes in grams of force on a Beckman Dynograph with Statham UC-3 transducers and microscale accessory attachments. Tissues were allowed to equilibrate at an initial optimum resting force for 1 to 2 hr before exposure to test compound.\nAfter control contractile responses to serotonin were obtained in the jugular vein, vessels were incubated with appropriate concentrations of the test compound for 1 hr. Responses to serotonin were then repeated in the presence of test compound.\nApparent test compound dissociation constants (KB) were determined for each concentration of test compound according to the following equation: [formula] where (B) is the concentration of the test compound and dose ratio is the ED50 of the serotonin in the presence of the test compound divided by the control ED50. […] The data were also analyzed according to the procedure of Arunlakshana and Schild, Brit. J. Pharmacol. 14, 48-58 (1959) as previously described [Cohen et al., supra (1983)]."}, "[6]": {"conditions": "15 minutes after test compound, serotonin 0.1 mg/kg iv"}, "[7]": {"conditions": "120 minutes after test compound"}},
  "note": "Like-named read-outs stand apart in the source and are kept apart here.",
  "data": [
    {"smiles": "CC(C)n1cc2c3c(cccc31)C1C[C@@H](C(=O)O)CN(C)[C@@H]1C2", "note": "(some centres unmarked) [II, 1-isopropyldihydrolysergic acid]", "values": [
      {"measurement": "inhibition of vascular serotonin receptors", "setting": "[1]; 0.1 mg/kg i.v.", "result": "marked block of vascular serotonin receptors"},
      {"measurement": "inhibition of serotonin vascular response 2 hrs. after administration", "setting": "[1]; 0.1 mg/kg i.v., 2 hrs. after intravenous administration", "result": "marked inhibition of serotonin vascular response was still apparent"},
      {"measurement": "Increase in mean blood pressure to serotonin", "setting": "[1]; [6]", "result": 29.7, "unit": "mm Hg"},
      {"measurement": "Increase in mean blood pressure to serotonin", "setting": "[1]; 30 minutes after test compound", "result": 27.8, "unit": "mm Hg"},
      {"measurement": "Increase in mean blood pressure to serotonin", "setting": "[1]; 60 minutes after test compound", "result": 35.3, "unit": "mm Hg"},
      {"measurement": "Increase in mean blood pressure to serotonin", "setting": "[1]; 90 minutes after test compound", "result": 41.7, "unit": "mm Hg"},
      {"measurement": "Increase in mean blood pressure to serotonin", "setting": "[1]; [7]", "result": 48.1, "unit": "mm Hg"},
      {"measurement": "Increase in mean blood pressure to serotonin", "setting": "[2]; 15 minutes after test compound", "result": 3.2, "unit": "mm Hg"},
      {"measurement": "Increase in mean blood pressure to serotonin", "setting": "[2]; 30 minutes after test compound", "result": 3.4, "unit": "mm Hg"},
      {"measurement": "Increase in mean blood pressure to serotonin", "setting": "[2]; 60 minutes after test compound", "result": 4.2, "unit": "mm Hg"},
      {"measurement": "Increase in mean blood pressure to serotonin", "setting": "[2]; 90 minutes after test compound", "result": 9.6, "unit": "mm Hg"},
      {"measurement": "Increase in mean blood pressure to serotonin", "setting": "[2]; [7]", "result": 13.6, "unit": "mm Hg"},
      {"measurement": "potency as a 5HT2 antagonist in vivo", "setting": "[3]; in vivo", "result": "relatively high potency"},
      {"measurement": "intravenous dose relative to the 4-methoxycyclohexyl ester to block vascular 5HT2 receptors", "setting": "[3]; intravenous", "result": "three-fold higher"},
      {"measurement": "potency relative to the ester in blocking vascular 5HT2 receptors", "setting": "[3]; intravenous administration", "result": "approximately one-third"},
      {"measurement": "effect on pressor response to serotonin", "setting": "[3]; intravenous", "result": "dose-dependently inhibited"},
      {"measurement": "affinity in vitro for 5HT2 receptors (background statement)", "setting": "[4]", "result": "relatively low affinity"},
      {"measurement": "Kb", "setting": "[5]; Schild plot abscissa intercept, rat jugular vein, read-out: pA2 (converted)", "result": 0.151, "unit": "µM"},
      {"measurement": "type of antagonism at 5HT2 receptors", "setting": "[5]; jugular vein, Schild slope not different from negative unity", "result": "competitive antagonist"},
      {"measurement": "Kd", "setting": "[5]; rat jugular vein", "result": "~0.1", "unit": "µM"},
      {"measurement": "affinity fold lower than the 4-methoxycyclohexyl ester", "setting": "[5]; rat jugular vein", "result": "approximately 100 fold"},
      {"measurement": "Kb", "setting": "[5]; rat jugular vein, serotonin contraction, apparent dissociation constant, n tissues in parentheses, read-out: -log KB ± SE(n) (converted)", "result": 0.0851, "unit": "µM"},
      {"measurement": "ratio II/I (pA2)", "setting": "[5]; ratio from pA2 of II and I", "result": 170},
      {"measurement": "ratio II/I (KB)", "setting": "[5]; ratio of KB of II to I", "result": 78},
      {"measurement": "-Slope", "setting": "[5]; slope of Schild plot, rat jugular vein", "result": 1.29}
    ]},
    {"smiles": "COC1CCC(OC(=O)C2C[C@@H]3c4cccc5c4c(cn5C(C)C)C[C@H]3N(C)C2)CC1", "note": "(some centres unmarked) [I, reference compound]", "values": [
      {"measurement": "inhibition of vascular serotonin receptors", "setting": "[1]; 0.1 mg/kg i.v.", "result": "greater inhibition of vascular serotonin receptors than the acid"},
      {"measurement": "Increase in mean blood pressure to serotonin", "setting": "[1]; [6]", "result": 7.3, "unit": "mm Hg"},
      {"measurement": "Increase in mean blood pressure to serotonin", "setting": "[1]; 30 minutes after test compound", "result": 12.7, "unit": "mm Hg"},
      {"measurement": "Increase in mean blood pressure to serotonin", "setting": "[1]; 60 minutes after test compound", "result": 23.9, "unit": "mm Hg"},
      {"measurement": "Increase in mean blood pressure to serotonin", "setting": "[1]; 90 minutes after test compound", "result": 34.6, "unit": "mm Hg"},
      {"measurement": "Increase in mean blood pressure to serotonin", "setting": "[1]; [7]", "result": 34.6, "unit": "mm Hg"},
      {"measurement": "effect on pressor response to serotonin", "setting": "[3]; intravenous", "result": "dose-dependently inhibited"}
    ]}
  ]
}
